For series [1] the following is noted: cited from earlier work.
The conditions of series [2]: cited from earlier work. This is another data set of the same source.
For series [3] the following is noted: cited from earlier work. The source holds these as a separate data set.
The subject of series [4] is xenograft models. Also on record: method as in PMID 29554921. The note with it: cited from earlier work.
The test system of series [5] is HepG2. In words: Antiproliferation CCK-8 assay, HepG2. It is filed as cell-based. The conditions noted are these: Homo sapiens, CCK-8, 72 h. As for the experimental part: (§1) The HepG2, MDA-MB-231, and HCT116 cell lines were derived from our own laboratory (the laboratory of our collaborator, Dr. Xiaolei Zhou, at College of Food Science and Biology in Hebei University of Science and Technology). The antiproliferative activities were assessed using the CCK-8 assay. Cell viability was measured according to the manufacturer’s instructions for the Cell Counting Kit-8 (Meilunbio, Dalian, China). In this assay, 2.5 × 10^3 cells per well were seeded into 96-well plates.
(§2) After an initial 12 h incubation, cancer cells were exposed to varying concentrations of compound 17c for 72 h. Following CCK-8 solution addition and 2 h incubation, the absorbance at 450 nm was measured using a BioTek Synergy HTX microplate reader. Experiments included triplicate wells with three independent replicates. The IC50 values for compound 17c were derived from an analysis of the dose–response curves in GraphPad PRISM 9.5.

Series [6] relates to MDA-MB-231. As to the kind of experiment: Antiproliferation CCK-8 assay, MDA-MB-231. The note with it: Homo sapiens, CCK-8, 72 h. It is filed as cell-based. As for the experimental part:
as §1, §2

Series [7] deals with HCT116. In words: Antiproliferation CCK-8 assay, HCT116. It is filed as cell-based. The conditions noted are these: Homo sapiens, HCT-116; CCK-8, 72 h; read-out: IC50 HCT116. The method, then: as §1, §2

`CCCCNc1ncc2c(-c3ccc(F)cc3)nn(CC3CCC(N)CC3)c2n1` (stereo not shown) [UNC569]: the “human microsomal t1/2” value in series [1] was < 15 min. Moreover, in series [2], the “oral bioavailability F” value is < 10%. As to `CCCCNc1ncc2c(-c3ccc(CN4CCN(C)CC4)cc3)cn([C@H]3CC[C@H](O)CC3)c2n1` [UNC2025], in series [3], the “t1/2 in human hepatocytes” value was 68 min.

`CCCCNc1ncc(-c2ccc(CN3CCOCC3)cn2)c(N[C@H]2CC[C@H](O)CC2)n1` [UNC2250]: in series [4], the “tumor volume reduction vs. control” value is reported as ~ 60%. Regarding `COc1cc2nccc(Oc3ccc(NC(=O)C4(C(=O)Nc5ccc(F)cc5)CC4)cc3)c2cc1OC` [cabozantinib, reference compound], the 50% inhibitory concentration (IC50) in series [5] was 7.87 ± 2.11 µM; in series [6], 4.62 ± 0.54 µM; in series [7], 15.6 ± 4.39 µM.

Source of the values: PMC12385147, “Discovery of Novel 2-Substituted Aniline Pyrimidine Based Derivatives as Potent Mer/c-Met Dual Inhibitors with Improvement Bioavailability” (Biomolecules, 2025).
